{"source": "paper PMC7573825", "about": "(Frontiers in Pharmacology, 2020)", "key": {"[1]": {"design": "method as in 3 sources, one per row (each row's own in cited_ref): ref Adane et al., 2015; Lin et al., 2016 ||| ref Ji et al., 2018 ||| ref Lin et al., 2019", "settings": "ref Adane et al., 2015, Lin et al., 2016, cited from earlier work"}, "[2]": {"assay": "Population pharmacokinetic modeling (NONMEM, one-compartment) of intravenous vancomycin from TDM trough plasma concentrations in kidney transplant recipients", "settings": "for Typical value of V / Typical value of CL: intravenous vancomycin, 56 adult kidney transplant recipients", "experimental": "All these patients adopted routine therapeutic drug monitoring. The transplant surgeries were performed between March 8 and June 21 in 2017. […] The glomerular filtration rate (GFR) was estimated from the sCr according to the published formula [GFR (ml min^-1): GFR = 2.104*sCr(μM) - 1.154*age - 1.154*(0.742 for female)*1.233(correction for Chinese)]\nOther concomitantly used drugs, such as prednisone, mycophenolate mofetil, cyclosporine, and tacrolimus were administered orally or intravenously once or twice a day, and their usages and doses were based on clinical necessity and safety.\nThe venous blood was centrifuged at 1,000 g for 4 min and a volume of 100 ml supernatant plasma was mixed with 100 ml of 5% perchloric acid solution. The mixture was fully vortex blended and then centrifuged at 14,000 g for 5 min. […] AHC-C18 column (250 mm × 4.6 mm, 5 μm; ShimadzuCo., Japan), a precolumn (10 mm × 4 mm, 5 μm; ShimadzuCo.), and a PDA detector (ShimadzuCo.) were used in the workstation. The mobile phase was acetonitrile in 0.01 M KH2PO4 solution (7:93 in volume), the flow rate was 0.5 ml min^-1, the column temperature was 30°C, and the detection wavelength was 236 nm. […] After using the same parallel method for sample preparation as mentioned above, the standard samples were simultaneously injected with the samples for testing.\nData processing and pharmacokinetic analysis were carried out with the nonlinear mixed-effects model program (NONMEM®, Version 7.4; Icon Inc, PA, USA), compiled with GFortran (Version 4.9.2; http://www.gfortran.org). The output was explored by the R package (Version 3.3.1; http://www.r-project.org) and Xpose (Version 4.5.3; http://xpose.sourceforge.net). The first-order conditional estimation method with η-ε interaction (FOCE-I) was used throughout the model-building procedure.\nFirst, we established the base compartment model. For the statistical modeling, exponential model was used as the inter-individual variation model:\nFor the residual variation modeling, additive, proportional, and mixed models were applied. The additive and proportional mixed model is as follows:\nIn the forward model building step, the covariates were assessed for their suitability depending on the changes in the objective function values (OFV) and the inter-individual variations and residual variations. Taking an example with df = 1, when the decrease of OFV is more than 3.84 (P < 0.05, df = 1), the introduced factor can be considered as a significant covariate for the parameter model. During the backward analysis, a covariate was removed from the model every time, except when the OFV value increased by more than 6.63 units (P < 0.01, df = 1).\nFor the effects of continuous variables on pharmacokinetic parameters, linear, exponential, and power function models were used. The linear function model was:"}, "most sensitive bacteria": {"test_system": "most sensitive bacteria", "design": "method as in Bhongsatiern et al., 2015; Bruniera et al., 2015", "settings": "ref Bhongsatiern et al., 2015, Bruniera et al.; cited from earlier work"}}, "note": "Where two headings read alike, the source gives them in different places."}
{"compound": "CN[C@H](CC(C)C)C(=O)N[C@H]1C(=O)N[C@@H](CC(N)=O)C(=O)N[C@H]2C(=O)N[C@H]3C(=O)N[C@H](C(=O)N[C@H](C(=O)O)c4cc(O)cc(O)c4-c4cc3ccc4O)[C@H](O)c3ccc(c(Cl)c3)Oc3cc2cc(c3O[C@@H]2O[C@H](CO)[C@@H](O)[C@H](O)[C@H]2O[C@H]2C[C@](C)(N)[C@H](O)[C@H](C)O2)Oc2ccc(cc2Cl)[C@H]1O", "note": "[vancomycin]", "values": [{"measurement": "Vancomycin clearance", "setting": "[1]; adult Chinese patients with post-craniotomy meningitis, typical creatinine clearance rate 104.7 ml/min", "result": 7.56, "unit": "L/h"}, {"measurement": "Vancomycin clearance", "setting": "[1]; patients with augmented renal clearance", "result": 8.52, "unit": "L/h"}, {"measurement": "Typical value of V", "setting": "[2]; base model, one-compartment, 195 plasma Cmin", "result": 45.5, "unit": "L"}, {"measurement": "Typical value of CL", "setting": "[2]; base model, one-compartment, 195 plasma Cmin, HPLC, FOCE-I", "result": 1.84, "unit": "L/h"}, {"measurement": "Typical value of CL", "setting": "[2]; final model, CL=2.08×[(WT/59.95)^1.07]×[(GFR/36.67)^0.698], 195 plasma Cmin", "result": 2.08, "unit": "L/h"}, {"measurement": "Typical value of V", "setting": "[2]; final model, V=63.2×[(WT/59.95)^0.934]", "result": 63.2, "unit": "L"}, {"measurement": "Influential factor for WT on V (θ3)", "setting": "[2]; final model, power function exponent", "result": 0.934}, {"measurement": "minimum inhibitory concentration (MIC)", "setting": "most sensitive bacteria", "result": "0.1 to 2", "unit": "µg/mL"}]}
